The values below come from ChEMBL document CHEMBL3217625, “Syntheses of a new class of phenyl butyraldehyde-derived amines with in vitro trypanocide activities” (Medchemcomm, 2012).

Molecules are shown by their SMILES. Activity calls are given as the source filed them. No cut-off for these calls is given here.

In data set [1] the test system is Trypanosoma cruzi. The data set can be described thus: Antiparasitic activity against Trypanosoma cruzi strain CL Brener epimastigotes assessed as growth inhibition after 72 hrs by neubauer chamber analysis. The format is functional, organism-based.
Data set [2] relates to Trypanosoma cruzi. The data set can be described thus: Antiparasitic activity against Trypanosoma cruzi strain CL Brener epimastigotes assessed as growth inhibition at 6 ug/ml after 72 hrs by neubauer chamber analysis in presence of 20 uM H2O2 (Rvb= 8%). The format is functional.
Data set [3] has as its system HeLa. The data set can be described thus: Cytotoxicity against human HeLa cells assessed as inhibition of cell proliferation at 5 ug/ml after 48 hrs by MTT assay. It is filed as cell-based.
For data set [4], the system named is Trypanosoma cruzi. The data set can be described thus: Antiparasitic activity against Trypanosoma cruzi strain CL Brener epimastigotes assessed as growth inhibition at 4 ug/ml after 72 hrs by neubauer chamber analysis. It is filed as functional. Particulars: read-out: GI.
Data set [5] has as its system Trypanosoma cruzi. In words: Antiparasitic activity against Trypanosoma cruzi strain CL Brener epimastigotes assessed as growth inhibition at 6 ug/ml after 72 hrs by neubauer chamber analysis in presence of 10 uM H2O2 (Rvb= 7%). The format is functional.
Data set [6] concerns Trypanosoma cruzi. The data set can be described thus: Antiparasitic activity against Trypanosoma cruzi strain CL Brener epimastigotes assessed as growth inhibition at 6 ug/ml after 72 hrs by neubauer chamber analysis. Particulars: read-out: GI. The format is functional.
Data set [7] addresses T1, Trypanothione reductase (Trypanosoma cruzi, UniProt P28593). In words: Time-dependent inhibition of Trypanosoma cruzi trypanothione reductase assessed as stabilization of enzyme-inhibitor complexes using TS2 as substrate by DTNB-coupled assay. The settings on record: read-out: Ki(app).
In data set [8] the target is Trypanothione reductase (Trypanosoma cruzi) (UniProt P28593). The data set can be described thus: Reversible competitive slow-binding inhibition of Trypanosoma cruzi trypanothione reductase using TS2 as substrate by DTNB-coupled assay. Particulars: TDE = time-dependent effect.
Chain of Trypanothione reductase (Trypanosoma cruzi) (P28593 whole entry, looked up): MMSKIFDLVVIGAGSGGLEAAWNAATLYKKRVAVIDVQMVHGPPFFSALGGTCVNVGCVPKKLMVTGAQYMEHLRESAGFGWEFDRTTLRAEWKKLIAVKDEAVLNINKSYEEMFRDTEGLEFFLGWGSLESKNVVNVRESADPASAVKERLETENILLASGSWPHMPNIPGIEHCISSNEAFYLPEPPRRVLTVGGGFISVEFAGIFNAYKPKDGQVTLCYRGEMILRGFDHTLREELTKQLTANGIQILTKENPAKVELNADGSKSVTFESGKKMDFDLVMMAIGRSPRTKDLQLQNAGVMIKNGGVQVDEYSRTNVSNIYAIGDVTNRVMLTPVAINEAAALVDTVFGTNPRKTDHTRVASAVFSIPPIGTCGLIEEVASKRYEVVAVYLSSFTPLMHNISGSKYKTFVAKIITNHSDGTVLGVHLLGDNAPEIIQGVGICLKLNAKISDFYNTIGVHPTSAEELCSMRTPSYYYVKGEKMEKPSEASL
For data set [9], the system named is Trypanosoma cruzi. The data set can be described thus: Antiparasitic activity against Trypanosoma cruzi strain CL Brener epimastigotes assessed as growth inhibition at 4 ug/ml after 72 hrs by neubauer chamber analysis in presence of 20 uM H2O2 (Rvb= 3%). The format is functional.
Data set [10] has as its system Trypanosoma cruzi. In words: Antiparasitic activity against Trypanosoma cruzi strain CL Brener epimastigotes assessed as growth inhibition at 4 ug/ml after 72 hrs by neubauer chamber analysis in presence of 10 uM H2O2 (Rvb= 0%). The format is functional.
The test system of data set [11] is Trypanosoma cruzi. In words: Antiparasitic activity against Trypanosoma cruzi strain CL Brener epimastigotes assessed as growth inhibition at 4 ug/ml after 72 hrs by neubauer chamber analysis in presence of 5 uM H2O2 (reference value: 4%). It is filed as functional.
The target of data set [12] is T1, Trypanothione reductase. In words: Time-dependent inhibition of Trypanosoma cruzi trypanothione reductase assessed as dissociation constants for enzyme-inhibitor binding using TS2 as substrate by DTNB-coupled assay. The settings on record: read-out: Ki(app).
Data set [13] relates to Trypanosoma cruzi. The data set can be described thus: Antiparasitic activity against Trypanosoma cruzi strain CL Brener epimastigotes assessed as growth inhibition at 6 ug/ml after 72 hrs by neubauer chamber analysis in presence of 5 uM H2O2 (reference value: 0%). It is filed as functional.
In data set [14] the test system is HeLa. In words: Cytotoxicity against human HeLa cells assessed as inhibition of cell proliferation at 5 to 10 ug/ml after 48 hrs by MTT assay. The format is cell-based. In general terms: Tetrazolium dyes change colour on reduction, which living cells bring about.
The target of data set [15] is Trypanothione reductase (Trypanosoma cruzi) (UniProt P28593). In words: Time-dependent inhibition of Trypanosoma cruzi trypanothione reductase using TS2 as substrate by DTNB-coupled assay.

T1 sequence (P28593 whole entry): as the sequence (P28593 whole entry, looked up) above

With `C=CCc1cc(C)c(O)c(C)c1CCCCNCc1ccccc1`, the half-maximal inhibitory concentration (IC50) (commonly the concentration that inhibits the measured activity by half) in data set [1] is 183 µM.

On to `CCCNCCCc1ccccc1`, for which the 50% inhibitory concentration (IC50) in data set [1] came to 241 µM.

For `Cc1cc(C)c(CCCCN(CCCCc2c(C)cc(C)c(O)c2C)Cc2ccccc2)c(C)c1O`, the “growth inhibition (GI)” value is on record as 53% in data set [2]; 58% in [5]; 50% in [9]; 52% in data set [10]; 48% in data set [11]; 58% in data set [13]. The Activity entry in data set [3] is “Non-toxic”. For the same compound, the inhibition of growth at 4 µg/mL in [4] worked out at 50%. Besides, the inhibition of growth at 6 µg/mL in data set [6] was found to be 49%. Moreover, the Ki is 37 µM in data set [7] and 288 µM in [12]. Also, in data set [8], the inhibition entry was “tde”. Also, the half-inhibitory concentration (IC50) in data set [1] amounted to 8 µM.

`O=C(Cn1ccnc1[N+](=O)[O-])NCc1ccccc1` [BENZNIDAZOLE]: the Activity result in [3] is given as “Non-toxic”. The half-maximal inhibitory concentration (IC50) in data set [1] was found to be 10 µM.

In the case of `CCCN(CCCc1ccccc1)CCCc1ccccc1`, the Activity entry in data set [3] was “Non-toxic”. For the same compound, the IC50 in data set [1] stood at 18.6 µM.

For the compound `CCCNCCCCc1c(C)cc(C)c(O)c1C`, the IC50 in [1] worked out at 55.8 µM.

Turning to `O=C1CC[C@]23/C=C/C(=O)NCCCCNCCCNC(=O)/C=C\c4ccc(c2c4)O[C@@H]3C1`, the figures for the Ki in data set [7] and in [12] were 114 µM and 304 µM, respectively.

With `Cc1cc(C)c(CCCCNCc2ccccc2)c(C)c1O`, the Activity entry in data set [14] was “Toxic”. Moreover, the inhibition result in [15] was “inactive”. Also, in [1], the 50% inhibitory concentration (IC50) is 10.1 µM.

With `C=CCc1cc(C)c(O)c(C)c1CCCCN(CCCCc1c(CC=C)cc(C)c(O)c1C)Cc1ccccc1`, the Activity entry in data set [3] was “Non-toxic”. Moreover, in data set [1], the IC50 was found to be 19.8 µM.

Regarding `Nc1nc(N)nc(Nc2ccc([As]=O)cc2)n1` (stereo not drawn) [MELARSEN OXIDE], the Ki in [7] was 1.4 µM; in [12], 18 µM.

As to `c1ccc(CCCN(CCCc2ccccc2)Cc2ccccc2)cc1`, the 50% inhibitory concentration (IC50) in [1] amounted to 34.6 µM.

As to `CCCN(CCCCc1c(C)cc(C)c(O)c1C)CCCCc1c(C)cc(C)c(O)c1C`, in data set [1], the IC50 was found to be 52.3 µM.

For the compound `c1ccc(CCCNCc2ccccc2)cc1`, the half-maximal inhibitory concentration (IC50) in data set [1] amounted to 104 µM.

Regarding `Cc1cc(C)c(CCCC=O)c(C)c1O`, in [1], the IC50 came to 485 µM.
